Like-named read-outs stand apart in the source and are kept apart here.
Experiments:
Isdop2 = Isdop2 (Ixodes scapularis, UniProt A0ACM8DGL0); test: cell-based; conditions: read-out: % Inhibition (of response to dopamine), Isdop2 screen
Ae. aegypti L3 larvae [1] = test: whole plant or invertebrate; conditions: Aedes aegypti
AaDOP2 [2] = target: T1, AaDOP2 (Aedes aegypti, UniProt H6D5H2); test: HTRF cAMP accumulation concentration response assay (Cisbio Dynamic 2); assay type: cell-based
AaDOP2 [3] = target: T1, AaDOP2; test: LOPAC1280 antagonist screen in HEK-CRELuc-Aadop2 cells; assay type: cell-based
AaDOP2 [4] = target: T1, AaDOP2; test: AaDOP2 agonist screen against the LOPAC1280 library; assay type: cell-based; conditions: 10 μM compound; percent of response to 1 μM dihydrexidine
Ae. aegypti L3 larvae [5] = conditions: 400 μM, three independent experiments
[6] = tested on: adult Reticulitermes flavipes; test: Termite immersion assay; assay type: in vivo; conditions: 100 mM compound (Fipronil 500 μM), immersion, adult termite
Excerpt: A series of whole organism bioassays was developed to further evaluate the toxicity of chemistries to a range of agricultural, veterinary and public health pests and non-target insects (Tables 12 and 13). These assays are designed to rapidly explore the biological activity spectrum of chemistries as well as to facilitate initial investigations of the mode of action of insecticidal compounds. Briefly, assays were developed for the German cockroach (Blatella germanica, urban pest), termite (Reticulitermes flavipes; urban pest), lone star tick (Amblyomma americana; veterinary and public health pest), soybean aphid (Aphis glycines, agricultural pest) and honeybee (Apis mellifera; beneficial, non-target insect). The assays were designed to test the toxicity and speed of kill of multiple chemistries on contact. Each of these assays was performed as a single point dose experiment in triplicate using either topical application of compound to the ventral thorax (1 μl of a […] compound solution in 1:1 v:v DMSO:EtOH vehicle; 50-80 μg effective dose depending on compound) as is the case for our cockroach and honeybee assays, or 10 second immersion in a solution of the compound diluted in water or DMSO:[…] The assays were conducted in 24-well plate format with mortality assessment following incubation at 22° C. as described above. Commercial insecticides were incorporated in these assays to provide a positive control and permit initial comparative analyses. Lead chemistries identified in our in vivo screen have been evaluated in the cockroach and termite assays.

[7] = 24 h, read-out: Toxicity to Aedes aegypti larvae (mortality) 24 hours
[8] = 48 h, read-out: Toxicity to Aedes aegypti larvae (mortality) 48 hours
[9] = 72 h, read-out: Toxicity to Aedes aegypti larvae (mortality) 72 hours
[10] = 48 h, read-out: Toxicity to Aedes aegypti larvae (mortality) 48 hours, 400 μM, L3 larvae, three independent experiments
[11] = 72 h, read-out: Toxicity to Aedes aegypti larvae (mortality) 72 hours, 400 μM, L3 larvae, three independent experiments

Isdop2, sequence (A0ACM8DGL0 entry or part of it): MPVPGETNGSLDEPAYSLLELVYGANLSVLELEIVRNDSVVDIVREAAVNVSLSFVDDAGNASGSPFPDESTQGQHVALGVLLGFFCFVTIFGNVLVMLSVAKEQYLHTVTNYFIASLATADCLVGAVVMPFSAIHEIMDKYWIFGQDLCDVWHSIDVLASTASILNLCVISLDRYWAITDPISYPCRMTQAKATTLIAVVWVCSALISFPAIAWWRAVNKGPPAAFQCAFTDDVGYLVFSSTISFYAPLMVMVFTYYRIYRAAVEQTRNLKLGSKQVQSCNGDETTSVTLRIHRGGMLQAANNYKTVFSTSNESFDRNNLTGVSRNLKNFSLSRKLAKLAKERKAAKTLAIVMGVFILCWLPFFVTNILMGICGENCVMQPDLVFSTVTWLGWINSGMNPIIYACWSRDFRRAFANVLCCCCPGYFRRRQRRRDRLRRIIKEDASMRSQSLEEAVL
T1 sequence (H6D5H2 entry or part of it): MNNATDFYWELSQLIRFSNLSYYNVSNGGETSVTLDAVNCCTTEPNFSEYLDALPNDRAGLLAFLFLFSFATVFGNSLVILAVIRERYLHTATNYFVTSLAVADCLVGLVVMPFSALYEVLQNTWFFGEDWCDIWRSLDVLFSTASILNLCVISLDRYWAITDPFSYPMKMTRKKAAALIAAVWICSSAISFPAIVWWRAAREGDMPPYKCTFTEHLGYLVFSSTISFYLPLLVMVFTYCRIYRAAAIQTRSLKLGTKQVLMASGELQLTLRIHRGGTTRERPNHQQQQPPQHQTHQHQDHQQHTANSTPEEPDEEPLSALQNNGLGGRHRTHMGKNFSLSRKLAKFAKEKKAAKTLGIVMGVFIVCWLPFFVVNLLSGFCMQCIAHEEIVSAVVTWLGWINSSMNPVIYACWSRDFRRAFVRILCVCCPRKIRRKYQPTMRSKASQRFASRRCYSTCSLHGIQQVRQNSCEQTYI

In the case of `CNCCCC1c2ccccc2C=Cc2ccccc21` [Protriptyline, 3-(5H-dibenzo[a,d][7]annulen-5-yl)-N-methylpropan-1-amine], the inhibition at 10 µM (Isdop2) is reported as 75%, the mortality at 400 µM (Ae. aegypti L3 larvae [1]; [7]) is reported as 37% and the mortality at 400 µM (Ae. aegypti L3 larvae [1]; [8]) is reported as 43%. The mortality at 400 µM (Ae. aegypti L3 larvae [1]; [9]) was 53%, the IC50 (AaDOP2 [2]; read-out: IC50 ± S.E.M. (nM), HTRF cAMP assay) was 600 ± 250 nM and the “% inhibition of DA activity (Aedes cell-based assay screen)” value (AaDOP2 [3]) was 82%. For the same molecule, the “% of the SCH23390 effect” value (AaDOP2 [3]) was 82%.
In the case of `CNCCc1ccc(O)c(O)c1` [N-Methyldopamine], the “% of DHX” value (AaDOP2 [4]) is reported as 107%.
With `CN1C2CCC1CC(OC(c1ccccc1)c1ccccc1)C2` (stereo not drawn) [Benztropine, (3-endo)-3-(diphenylmethoxy)-8-methyl-8-azabicyclo[3.2.1]octane] the inhibition at 10 µM (Isdop2) was 84%, the “Toxicity to Aedes aegypti larvae (mortality) 24 hours” value (Ae. aegypti L3 larvae [5]) was 100% and the mortality at 400 µM (Ae. aegypti L3 larvae [1]; 0.5 h, read-out: percent mortality 0.5 hr, 400 uM, L3 larvae, value for this scoring time) was 0%. It also gave a mortality at 400 µM (Ae. aegypti L3 larvae [1]; 1 h, read-out: percent mortality 1 hr, 400 uM, L3 larvae, per scoring time) of 0%, a mortality at 400 µM (Ae. aegypti L3 larvae [1]; 2 h, read-out: percent mortality 2 hr, 400 uM, L3 larvae, per scoring time) of 20% and a mortality at 400 µM (Ae. aegypti L3 larvae [1]; 3 h, read-out: percent mortality 3 hr, 400 uM, L3 larvae, per scoring time) of 0%. For the same molecule, the mortality at 400 µM (Ae. aegypti L3 larvae [1]; 4 h, read-out: percent mortality 4 hr, 400 uM, L3 larvae, per scoring time) was 0%, the mortality at 400 µM (Ae. aegypti L3 larvae [1]; 24 h, read-out: percent mortality 24 hr, 400 uM, L3 larvae, per scoring time) was 40% and the mortality at 400 µM (Ae. aegypti L3 larvae [1]; [10]) was 100%. It also gave a mortality at 400 µM (Ae. aegypti L3 larvae [1]; 48 h, read-out: percent mortality 48 hr, 400 uM, L3 larvae, per scoring time) of 0%, a mortality at 400 µM (Ae. aegypti L3 larvae [1]; 72 h, read-out: Cumulative % Mortality (72 hrs), 400 uM, L3 larvae) of 100% and a mortality at 400 µM (Ae. aegypti L3 larvae [1]; [11]) of 100%. The mortality at 400 µM (Ae. aegypti L3 larvae [1]; 72 h, read-out: percent mortality 72 hr, 400 uM, L3 larvae, per scoring time) was 0%.
In the case of `CCCN1CCc2cccc3c2[C@H]1Cc1ccc(O)c(O)c1-3` [R(−)-Propyl-NPA], the “% of DHX” value (AaDOP2 [4]) is reported as 68%.
In the case of `Oc1ccc(C2CNCCc3c2cc(O)c(O)c3Cl)cc1` (stereo not shown) [Fenoldopam], the “% of DHX” value (AaDOP2 [4]) is reported as 31%.
In the case of `NC1CCc2cc(O)c(O)cc2C1` (stereo not shown) [6,7-ADTN], the “% of DHX” value (AaDOP2 [4]) is reported as 131%.
With `N#Cc1nn(-c2c(Cl)cc(C(F)(F)F)cc2Cl)c(N)c1[S+]([O-])C(F)(F)F` (stereo not shown) [Fipronil] the “% Mortality 24 hrs” value [6] was 90%, the “% Mortality 48 hrs” value [6] was 100% and the “% Mortality 72 hrs” value [6] was 100%. The “% Mortality 120 hrs” value [6] was 100% and the “% Mortality 240 hrs” value [6] was 100%.
In the case of `CCN(c1nc(N)c(C(=O)NC(=N)N)nc1Cl)C(C)C` [EIPA], the “% of DHX” value (AaDOP2 [4]) is reported as 73%.
With `CNCCC=C1c2ccccc2CCc2ccccc21` [Nortriptyline, 3-(10,11-dihydro-5H-dibenzo[a,d]cyclohepten-5-ylidene)-N-methyl-1-propanamine] the inhibition at 10 µM (Isdop2) was 79%, the mortality at 400 µM (Ae. aegypti L3 larvae [1]; [7]) was 43% and the mortality at 400 µM (Ae. aegypti L3 larvae [1]; [8]) was 63%. For the same molecule, the mortality at 400 µM (Ae. aegypti L3 larvae [1]; [9]) was 73%, the IC50 (AaDOP2 [2]; IC50 ± S.E.M. (nM), HTRF cAMP assay) was 140 ± 50 nM and the “% of the SCH23390 effect” value (AaDOP2 [3]; 10 μM compound, 300 nM dopamine, quadruplicate) was 96%. The “% inhibition of DA activity (Aedes cell-based assay screen)” value (AaDOP2 [3]; LOPAC1280 screen hits) was 96%.
With `CN(C)CCCN1c2ccccc2CCc2ccc(Cl)cc21` [Clomipramine] the inhibition at 10 µM (Isdop2) was 84%, the “Toxicity to Aedes aegypti larvae (mortality) 24 hours” value (Ae. aegypti L3 larvae [5]) was 70% and the mortality at 400 µM (Ae. aegypti L3 larvae [1]; 24 h, read-out: Toxicity to Aedes aegypti larvae (mortality) 24 hours, 400 μM, L3 larvae, three independent experiments) was 70 to 100%. The mortality at 400 µM (Ae. aegypti L3 larvae [1]; [10]) was 93% and the mortality at 400 µM (Ae. aegypti L3 larvae [1]; [11]) was 93%.
In the case of `Nc1ncnc2c1ncn2[C@@H]1O[C@H](C(=O)NC2CC2)[C@@H](O)[C@H]1O` [CPCA], the “% of DHX” value (AaDOP2 [4]) is reported as 34%.
`CC[C@@H](CO)NC(=O)[C@@H]1C=C2c3cccc4[nH]cc(c34)C[C@H]2N(C)C1` [Methylergonovine] was tested, and the “% of DHX” value (AaDOP2 [4]) was 47%.
For `C=C[C@@]1(C)CC(=O)[C@]2(O)[C@@]3(C)[C@@H](O)CCC(C)(C)[C@@H]3[C@H](O)[C@H](OC(C)=O)[C@@]2(C)O1` [Forskolin], the “% of DHX” value (AaDOP2 [4]) was 34%.
With `CCCCCCCC/C=C\CCCCCCCC(=O)NCCc1ccc(O)c(O)c1` [N-Oleoyldopamine] the “% of DHX” value (AaDOP2 [4]) was 38%.
